{"source": "paper PMC8400540", "about": "“Synthesis, Biological Evaluation, and In Silico Studies of New Acetylcholinesterase Inhibitors Based on Quinoxaline Scaffold” (Molecules, 2021)"}
{"molecular_target": "T1, butyrylcholinesterase from equine serum (EqBChE) (Equus caballus, UniProt P81908)", "T1 construct": "butyrylcholinesterase from equine serum (eqBChE); purchased Sigma-Aldrich; host or cells: equine serum", "T1 sequence (P81908 whole entry)": "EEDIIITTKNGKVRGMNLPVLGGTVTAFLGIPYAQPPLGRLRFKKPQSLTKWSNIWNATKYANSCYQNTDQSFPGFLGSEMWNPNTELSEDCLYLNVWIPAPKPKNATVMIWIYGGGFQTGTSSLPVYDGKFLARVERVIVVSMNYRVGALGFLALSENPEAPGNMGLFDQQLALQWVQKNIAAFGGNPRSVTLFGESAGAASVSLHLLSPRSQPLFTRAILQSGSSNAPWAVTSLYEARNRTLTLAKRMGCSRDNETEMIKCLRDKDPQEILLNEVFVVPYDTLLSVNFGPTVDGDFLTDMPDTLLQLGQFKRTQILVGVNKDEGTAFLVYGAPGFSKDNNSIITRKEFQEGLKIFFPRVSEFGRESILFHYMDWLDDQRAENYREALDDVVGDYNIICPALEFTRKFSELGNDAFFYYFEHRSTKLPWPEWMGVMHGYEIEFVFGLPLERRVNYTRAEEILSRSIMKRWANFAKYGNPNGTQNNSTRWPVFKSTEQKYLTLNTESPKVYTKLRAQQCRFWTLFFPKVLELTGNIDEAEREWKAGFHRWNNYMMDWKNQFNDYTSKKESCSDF", "assay": "biochemical", "type": "biochemical", "details": "EqBChE; mean ± SD, n = three independent experiments", "procedure": "(§1) Initially, acetylcholinesterase and butyrylcholinesterase inhibitory activities of the compounds were screened at the concentration of 100 µM. […] The raw data of IC50 in this study were able to be accessed in Supplementary Materials.\n(§2) Human recombinant acetylcholinesterase (HuAChE), butyrylcholinesterase from equine serum (eqBChE), acetylthiocholine iodide (ATCI), butyrylthiocholine iodide (BTCI) and 5,5′-dithiobis(2-nitrobenzoic acid) (DTNB) were gained from Sigma-Aldrich. Assays of acetyl- and butyrylcholinesterase inhibitory activity were performed according to Ellman’s method described previously. Briefly, these assays were performed as follows. The reaction mixture (250 µL), containing 50 µL of buffer (50 mM Tris-HCl buffer (pH 8.0), 0.1 M NaCl, 0.02 M MgCl2.6H2O), 25 µL of 1.5 mM of ATCI or BTCI, 25 µL of 100 µM of test compounds in EtOH and 125 µL of 3 mM DTNB were added. Then, 25 µL of HuAChE and equine serum of BChE in 50 mM Tris-HCl buffer containing 0.1% (w/v) BSA (pH 8.0). Reactions were initiated by the addition of the enzyme into the medium. […] Each experiment was repeated in triplicate.\n(§3) The percentage of enzyme inhibitory activity (%Inhibition) was calculated by the following expression: %Inhibition = ((Mean velocity of blank-Mean velocity of sample) × 100)/Mean velocity of blank.", "units": {"IC50": "µM"}}
{"smiles": "c1ccc2nccnc2c1", "note": "[Compound 3a, Quinoxaline]", "IC50": "40.6 ± 1.6"}
{"smiles": "c1ccc(-c2cnc3ccccc3n2)cc1", "note": "[Compound 3b, 2-Phenylquinoxaline]", "IC50": "14.9 ± 2.6"}
{"smiles": "O=[N+]([O-])c1ccc2nccnc2c1", "note": "[Compound 5a, 6-Nitroquinoxaline]", "IC50": "42 ± 1"}
{"smiles": "O=[N+]([O-])c1ccc2ncc(-c3ccccc3)nc2c1", "note": "[Compound 5b, 7-Nitro-2-phenylquinoxaline]", "IC50": "61 ± 3.4"}
{"molecular_target": "T1, butyrylcholinesterase from equine serum (EqBChE)", "assay": "biochemical", "type": "biochemical", "details": "at 100 µM; mean ± SD, n = three; read-out: %Inhibition BChE", "procedure": "as §1, §2, §3", "units": {"inhibition at 100 µM": "%"}}
{"smiles": "Cc1nc2ccccc2nc1C", "note": "[Compound 3c, 2,3-Dimethylquinoxaline]", "inhibition at 100 µM": 23.4}
{"smiles": "Clc1ccc2nccnc2c1", "note": "[Compound 4a, 6-Chloroquinoxaline]", "inhibition at 100 µM": 37.4}
{"smiles": "Clc1ccc2ncc(-c3ccccc3)nc2c1", "note": "[Compound 4b, 7-Chloro-2-phenylquinoxaline]", "inhibition at 100 µM": 41.2}
{"smiles": "Cc1nc2ccc(Cl)cc2nc1C", "note": "[Compound 4c, 6-Chloro-2,3-dimethylquinoxaline]", "inhibition at 100 µM": 37.4}
{"smiles": "Cc1nc2ccc([N+](=O)[O-])cc2nc1C", "note": "[Compound 5c, 2,3-Dimethyl-6-nitroquinoxaline]", "inhibition at 100 µM": 32.1}
{"smiles": "Nc1ccc2nccnc2c1", "note": "[Compound 6a, Quinoxalin-6-amine]", "inhibition at 100 µM": 32.9}
{"smiles": "Nc1ccc2ncc(-c3ccccc3)nc2c1", "note": "[Compound 6b, 3-Phenylquinoxalin-6-amine]", "inhibition at 100 µM": 44.1}
{"smiles": "Cc1nc2ccc(N)cc2nc1C", "note": "[Compound 6c, 2,3-Dimethylquinoxalin-6-amine]", "inhibition at 100 µM": 29.2}
{"molecular_target": "T1, butyrylcholinesterase from equine serum (EqBChE)", "assay": "biochemical", "type": "biochemical", "details": "screened at 100 µM", "procedure": "as §1, §2, §3"}
{"smiles": "Cc1nc2ccccc2nc1C", "note": "[Compound 3c, 2,3-Dimethylquinoxaline]", "butyrylcholinesterase inhibitory activity (in words)": "no activity"}
{"smiles": "Cc1nc2ccc(Cl)cc2nc1C", "note": "[Compound 4c, 6-Chloro-2,3-dimethylquinoxaline]", "butyrylcholinesterase inhibitory activity (in words)": "no activity"}
{"smiles": "Cc1nc2ccc([N+](=O)[O-])cc2nc1C", "note": "[Compound 5c, 2,3-Dimethyl-6-nitroquinoxaline]", "butyrylcholinesterase inhibitory activity (in words)": "no activity"}
{"smiles": "Cc1nc2ccc(N)cc2nc1C", "note": "[Compound 6c, 2,3-Dimethylquinoxalin-6-amine]", "butyrylcholinesterase inhibitory activity (in words)": "no activity"}
{"molecular_target": "T2, human recombinant acetylcholinesterase (HuAChE) (Homo sapiens, UniProt P22303)", "T2 construct": "purchased Sigma-Aldrich", "T2 sequence (P22303 32-614)": "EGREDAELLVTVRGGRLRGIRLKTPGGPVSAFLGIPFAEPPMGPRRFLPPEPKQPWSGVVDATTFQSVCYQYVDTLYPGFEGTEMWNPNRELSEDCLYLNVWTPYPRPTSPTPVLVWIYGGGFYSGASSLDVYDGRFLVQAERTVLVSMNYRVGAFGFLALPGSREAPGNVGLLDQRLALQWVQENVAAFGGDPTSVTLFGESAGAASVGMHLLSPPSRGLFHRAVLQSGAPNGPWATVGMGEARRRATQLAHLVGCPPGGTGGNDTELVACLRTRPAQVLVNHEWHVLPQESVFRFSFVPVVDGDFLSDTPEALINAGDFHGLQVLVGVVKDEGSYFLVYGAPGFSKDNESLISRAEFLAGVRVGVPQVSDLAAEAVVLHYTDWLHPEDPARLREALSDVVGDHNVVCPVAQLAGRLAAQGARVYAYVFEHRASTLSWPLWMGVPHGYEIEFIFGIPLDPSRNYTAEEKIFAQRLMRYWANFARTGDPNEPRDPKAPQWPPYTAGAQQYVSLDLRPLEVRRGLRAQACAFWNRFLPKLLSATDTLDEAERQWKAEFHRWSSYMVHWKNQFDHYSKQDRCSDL", "assay": "biochemical", "details": "not given", "units": {"IC50": "µM"}}
{"smiles": "c1ccc2nccnc2c1", "note": "[Compound 3a, Quinoxaline]", "IC50": "13.2 ± 4.1"}
{"smiles": "Cc1nc2ccccc2nc1C", "note": "[Compound 3c, 2,3-Dimethylquinoxaline]", "IC50": "7.25 ± 1.5"}
{"smiles": "Clc1ccc2nccnc2c1", "note": "[Compound 4a, 6-Chloroquinoxaline]", "IC50": "23.9 ± 1.3"}
{"smiles": "Nc1ccc2nccnc2c1", "note": "[Compound 6a, Quinoxalin-6-amine]", "IC50": "0.74 ± 0.5"}
{"molecular_target": "T2, human recombinant acetylcholinesterase (HuAChE)", "assay": "biochemical", "details": "HuAChE; mean ± SD, n = three independent experiments; read-out: IC50 AChE", "units": {"IC50": "µM"}}
{"smiles": "c1ccc(-c2cnc3ccccc3n2)cc1", "note": "[Compound 3b, 2-Phenylquinoxaline]", "IC50": "50.1 ± 2.6"}
{"smiles": "Clc1ccc2ncc(-c3ccccc3)nc2c1", "note": "[Compound 4b, 7-Chloro-2-phenylquinoxaline]", "IC50": "28.5 ± 1.6"}
{"smiles": "Cc1nc2ccc(Cl)cc2nc1C", "note": "[Compound 4c, 6-Chloro-2,3-dimethylquinoxaline]", "IC50": "10.7 ± 1.4"}
{"smiles": "O=[N+]([O-])c1ccc2nccnc2c1", "note": "[Compound 5a, 6-Nitroquinoxaline]", "IC50": "21.3 ± 1.5"}
{"smiles": "O=[N+]([O-])c1ccc2ncc(-c3ccccc3)nc2c1", "note": "[Compound 5b, 7-Nitro-2-phenylquinoxaline]", "IC50": "39 ± 0.8"}
{"smiles": "Cc1nc2ccc([N+](=O)[O-])cc2nc1C", "note": "[Compound 5c, 2,3-Dimethyl-6-nitroquinoxaline]", "IC50": "8.42 ± 1.8"}
{"smiles": "Nc1ccc2ncc(-c3ccccc3)nc2c1", "note": "[Compound 6b, 3-Phenylquinoxalin-6-amine]", "IC50": "1.31 ± 0.2"}
{"smiles": "Cc1nc2ccc(N)cc2nc1C", "note": "[Compound 6c, 2,3-Dimethylquinoxalin-6-amine]", "IC50": "0.077 ± 0.01"}
{"molecular_target": "T2, human recombinant acetylcholinesterase (HuAChE)", "assay": "biochemical", "details": "Selectivity index for AChE: IC50 BChE/IC50 AChE"}
{"smiles": "c1ccc2nccnc2c1", "note": "[Compound 3a, Quinoxaline]", "Selectivity BChE/AChE": 3.07}
{"smiles": "c1ccc(-c2cnc3ccccc3n2)cc1", "note": "[Compound 3b, 2-Phenylquinoxaline]", "Selectivity BChE/AChE": 0.29}
{"smiles": "O=[N+]([O-])c1ccc2nccnc2c1", "note": "[Compound 5a, 6-Nitroquinoxaline]", "Selectivity BChE/AChE": 1.97}
{"smiles": "O=[N+]([O-])c1ccc2ncc(-c3ccccc3)nc2c1", "note": "[Compound 5b, 7-Nitro-2-phenylquinoxaline]", "Selectivity BChE/AChE": 1.56}
{"test_system": "not listed separately", "assay": "Cytotoxicity, sulforhodamine B (SRB) assay", "type": "cell-based", "details": "human, SH-SY5Y neuroblastoma cells, up to 100 µM, read-out: LC50", "procedure": "Selected compounds in the series were then evaluated for their cytotoxicity against SH-SY5Y neuron cells. […].\nFigure 3 The cytotoxic effect of synthesized compounds on SH-SY5Y cells as determined by SRB assay. Cells were treated with the synthesized compounds at different concentrations for 48 h, and then SRB assay was performed. Data are means ± SD of three independent experiments, and %cell viability was calculated relative to nontreated control.\nThe cytotoxicity assay of the tested compounds against human SH-SY5Y neuroblastoma cells was measured using a sulforhodamine B (SRB) assay. The cells were cultured in Dulbecco’s modified Eagle’s medium supplemented with 10% fetal bovine serum (Gibco, Paisley, UK) and grown at 37 °C in a humid atmosphere containing 5% CO2. Cells (10,000 cells/well) were seeded in a 96-well plate and incubated at 37 °C, 5% CO2 for 24 h. The cells were then treated with or without various concentrations (0, 3.125, 6.25, 12.5, 25, 50, and 100 μM) of each compound for 48 h. After an incubation period, 40% (w/v) trichloroacetic acid (TCA) was added to the cells, and the cells were then incubated at 4 °C for 1 h. A total of 0.4% (w/v) SRB solution (100 μL) was added to each well, and the cells were incubated for 1 h at room temperature. The SRB solution was removed, and then the cells were washed three times with 1% (v/v) acetic acid, and they were allowed to dry at room temperature. The protein-bound dye was dissolved with 10 mM Tris base solution, and the absorbance was measured at 492 nm using a microplate reader.", "units": {"CC50 at 48 h": "µM"}}
{"smiles": "Nc1ccc2nccnc2c1", "note": "[Compound 6a, Quinoxalin-6-amine]", "CC50 at 48 h": "> 100"}
{"smiles": "Nc1ccc2ncc(-c3ccccc3)nc2c1", "note": "[Compound 6b, 3-Phenylquinoxalin-6-amine]", "CC50 at 48 h": "> 100"}
{"smiles": "Cc1nc2ccc(N)cc2nc1C", "note": "[Compound 6c, 2,3-Dimethylquinoxalin-6-amine]", "CC50 at 48 h": "> 100"}
{"molecular_target": "T3, Human recombinant AChE (Homo sapiens, UniProt P22303)", "T3 construct": "purchased Sigma-Aldrich", "T3 sequence (P22303 32-614)": "as above", "assay": "Enzyme kinetic study of AChE inhibition (Lineweaver-Burk)", "type": "biochemical", "details": "Lineweaver-Burk plot", "procedure": "(§4) […]. The kinetic assay of AChE inhibition was carried out at 0, 30, 50 and 60 µM of compound 6c. […]. [ATCI], substrate concentration (µM); V, reaction velocity (1/V (abs/min)^−1).\n(§5) Kinetic studies of HuAChE were performed by Ellman’s method as described above. […]. Kinetic characterization of the hydrolysis of ATCI for HuAChE was carried out spectrometrically at 405 nm every 11 s for 2 min. A parallel control was run with the assay solution without inhibitor. The inhibition was evaluated by Lineweaver–Burk plot from substrate concentrations range between 10 to 250 µM for ATCI and inhibitor concentrations (0, 30, 50, 60 µM). The type of inhibition (competitive, uncompetitive, noncompetitive and mixed type inhibition) was calculated from the Michaelis–Menten equation was converted to Lineweaver–Burk equation into a straight line by plotting 1/velocity opposite to 1/[S]. Graphs were plotted by means of GraphPad Prism 7.03 for Windows (GraphPad Software, San Diego, CA, USA, www.graphpad.com, accessed on 13 May 2021).\n(§6) From obtained equations of regression curves in the Lineweaver-Burk plot, the values of maximum velocity (Vm) and Michealis constant (Km) were calculated. Using non-linear regression (selected panel: enzyme kinetic inhibition/ mixed model inhibition) the values of Ki and alpha were determined. The alpha value defines the mechanism. […]"}
{"smiles": "Cc1nc2ccc(N)cc2nc1C", "note": "[Compound 6c, 2,3-Dimethylquinoxalin-6-amine]", "type of AChE inhibition": "mixed-type inhibitor"}
{"molecular_target": "T3, Human recombinant AChE", "assay": "Enzyme kinetic study of AChE inhibition (Lineweaver-Burk)", "type": "biochemical", "details": "non-linear regression, mixed model inhibition", "procedure": "as §4, §5, §6"}
{"smiles": "Cc1nc2ccc(N)cc2nc1C", "note": "[Compound 6c, 2,3-Dimethylquinoxalin-6-amine]", "Alpha": 0.1875}
